Results reported in patent US20250367129A1, “Lipid Compounds and Uses Thereof” (Pfizer Inc., priority 2022, published 2025).

How the values were obtained:
[1] = Encapsulation efficiency, RiboGreen RNA quantitation assay (CA HA modFlu mRNA LNPs); format: physicochemical; conditions: LNP with CA HA modFlu mRNA
Description: (§1) Lipid nanoparticles were prepared and tested according to the general procedures described in U.S. Pat. No. 9,737,619 (PCT Pub. No. WO2015/199952) and U.S. Pat. No. 10,166,298 (PCT Pub. No. WO 2017/075531) and PCT Pub. No. WO2020/146805. The novel ionizable lipids of the invention, cholesterol, distearoylphosphatidylcholine (DSPC) and ALC-0159 2-[(polyethylene glycol)-2000]-N,N ditetradecylacetamide were solubilized in ethanol at a molar ratio of about 46.3:42.7:9.4:1.6. Lipid nanoparticles were made by mixing the lipids containing organic phase with the mRNA containing aqueous phase using an N:P ratio of about 6:1. The mRNA was diluted in buffer. Syringe pumps were used to mix the ethanolic lipid solution with the mRNA aqueous solution. The ethanol was then removed, and the external buffer replaced with another buffer (e.g., Tris) by dialysis. Finally, the lipid nanoparticles were filtered.
(§2) Total RNA concentration and encapsulation efficiency was assessed using the RiboGreen RNA quantitation assay. RNA integrity pre and post formulation was monitored by Agilent Fragment Analyzer capillary gel electrophoresis. Malvern Zetasizer dynamic light scattering (DLS) was used to determine LNP size and polydispersity index (PDI). In vitro expression of the novel ionizable lipid nanoparticles was assessed in HEK293F and Hela cells similar to described in Example 72. Nuclear count and identification of cells stained positive for gene of interest was done on an Opera Phenix high content imager (PerkinElmer, USA).

[2] = tested on: Hela cells; experiment: In vitro expression of novel ionizable lipid nanoparticles, high content imaging (CA HA modFlu mRNA); format: cell-based; conditions: LNP with CA HA modFlu mRNA
Description: (§3) Plated Hek293T or Hela cells were dosed with lipid nanoparticles in a total volume of 40 μl cell culture media and incubated overnight at 37° C. and 5% CO2. After fixation with 4% paraformaldehyde in PBS cells were washed in PBS containing 0.3% Triton-X100 and 3% BSA (w/v), followed by nuclear staining with Hoechst and antibody staining for the encoded gene of interest. Nuclear count and identification of cells stained positive for gene of interest was done on an Opera Phenix high content imager (PerkinElmer, USA).
as §1, §2

[3] = tested on: HEK293F cells; experiment: as above; format: cell-based; conditions: LNP with CA HA modFlu mRNA
Description: as §3, §1, §2

[4] = LNP size and polydispersity index by Malvern Zetasizer dynamic light scattering (CA HA modFlu mRNA LNPs); format: physicochemical; conditions: DLS; for Size (nm): LNP of the ionizable lipid:cholesterol:DSPC:ALC-0159 about 46.3:42.7:9.4:1.6, N:P about 6:1, CA HA modFlu mRNA; for PDI: LNP with CA HA modFlu mRNA
Description: as §1, §2

Question: With `CCCCCCCCCC(=O)OCC(COC(=O)C(CCCCCC)CCCCCCCC)N1CCC2(CCN(CCCCO)CC2)CC1` (stereo not shown) [Example 42, 3-(decanoyloxy)-2-(9-(4-hydroxybutyl)-3,9-diazaspiro[5.5]undecan-3-yl)propyl 2-hexyldecanoate] as the compound, how does the EE % [1] read?
Answer: 99%

Question: And the “EC50 Hela (ng/well)” value [2]?
Answer: >50 ng/well

Question: What about the “EC50 Hek293F (ng/well)” value [3] of the same compound?
Answer: 42.7 ng/well

Question: What about the “Size (nm)” value [4] of the same compound?
Answer: 100 nm

Question: What about the PDI [4] of the same compound?
Answer: 0.080

Question: For `CCCCCCCC(CCCCCCC)OC(=O)CCCCCC(=O)O[C@@H]1CC2(CCN(CCCCO)CC2)C[C@H]1OC(=O)CCCCCC(=O)OC(CCCCCCC)CCCCCCC` (racemic) [Example 63, rac-O′^1,O^1-((2R,3R)-8-(4-hydroxybutyl)-8-azaspiro[4.5]decane-2,3-diyl) 7,7′-di(pentadecan-8-yl) di(heptanedioate)], which EE % [1] is on record?
Answer: 99%

Question: And the “EC50 Hela (ng/well)” value [2]?
Answer: 0.58 ng/well

Question: What about the “EC50 Hek293F (ng/well)” value [3] of the same compound?
Answer: 0.39 ng/well

Question: And the “Size (nm)” value [4]?
Answer: 107 nm

Question: And the PDI [4]?
Answer: 0.060

Question: For `CCCCC(CCCC)C(CCCC)CCC(=O)OCC(COC(=O)CCC(CCCC)C(CCCC)CCCC)N1CCC2(CCN(CCCCO)CC2)CC1` (stereo not shown) [Example 38, 2-(9-(4-hydroxybutyl)-3,9-diazaspiro[5.5]undecan-3-yl)propane-1,3-diyl bis(4,5-dibutylnonanoate)], which EE % [1] is on record?
Answer: 100%

Question: What about the “EC50 Hela (ng/well)” value [2] of the same compound?
Answer: 7.0 ng/well

Question: What about the “EC50 Hek293F (ng/well)” value [3] of the same compound?
Answer: 28.1 ng/well

Question: And the “Size (nm)” value [4]?
Answer: 146 nm

Question: What about the PDI [4] of the same compound?
Answer: 0.100

Question: For `CCCCCCCCC(CCCCCC)C(=O)OCC(COC(=O)C(CCCCCC)CCCCCCCC)N1CCC2(CC1)CN(CCCCO)C2` (stereo not shown) [Example 50, 2-(2-(4-hydroxybutyl)-2,7-diazaspiro[3.5]nonan-7-yl)propane-1,3-diyl bis(2-hexyldecanoate)], which EE % [1] is on record?
Answer: 99%

Question: What about the “EC50 Hela (ng/well)” value [2] of the same compound?
Answer: 0.74 ng/well

Question: And the “EC50 Hek293F (ng/well)” value [3]?
Answer: 0.56 ng/well

Question: And the “Size (nm)” value [4]?
Answer: 120 nm

Question: What about the PDI [4] of the same compound?
Answer: 0.046

Question: Which EE % [1] does the source give for `CCCCCCCCC(CC1CC=CC1)C(=O)OCC(COC(=O)C(CCCCCCCC)CC1CC=CC1)N1CCC2(CCN(CCCCO)CC2)CC1` (stereo not shown) [Example 35, 2-(9-(4-hydroxybutyl)-3,9-diazaspiro[5.5]undecan-3-yl)propane-1,3-diyl bis(2-(cyclopent-3-en-1-ylmethyl)decanoate)] here?
Answer: 99%

Question: What about the “EC50 Hela (ng/well)” value [2] of the same compound?
Answer: 1.4 ng/well

Question: And the “EC50 Hek293F (ng/well)” value [3]?
Answer: 21.3 ng/well

Question: What about the “Size (nm)” value [4] of the same compound?
Answer: 102 nm

Question: And the PDI [4]?
Answer: 0.040

Question: Which results are given for `CCCCCCCCC(CCCCCC)C(=O)OCC(COC(=O)C(CCCCCC)CCCCCCCC)N1CCC2(CCN(CCCNC(=O)C3(C)CC3)CC2)CC1` (stereo not shown) [Example 9, 2-(9-(3-(1-methylcyclopropane-1-carboxamido)propyl)-3,9-diazaspiro[5.5]undecan-3-yl)propane-1,3-diyl bis(2-hexyldecanoate)]?
Answer: EE % [1]: 99%; EC50 Hela (ng/well) [2]: 4.2 ng/well; EC50 Hek293F (ng/well) [3]: 2.6 ng/well; Size (nm) [4]: 96 nm; PDI [4]: 0.070

Question: With `CCCCCCCC(CCCCCCC)C(=O)OCCCCCC(=O)O[C@@H]1CC2(CCN(CCCCO)CC2)C[C@H]1OC(=O)CCCCCOC(=O)C(CCCCCCC)CCCCCCC` (racemic) [Example 64, rac-(((2R,3R)-8-(4-hydroxybutyl)-8-azaspiro[4.5]decane-2,3-diyl)bis(oxy))bis(6-oxohexane-6,1-diyl) bis(2-heptylnonanoate)] as the compound, how does the EE % [1] read?
Answer: 99%

Question: And the “EC50 Hela (ng/well)” value [2]?
Answer: 0.69 ng/well

Question: And the “EC50 Hek293F (ng/well)” value [3]?
Answer: 0.64 ng/well

Question: And the “Size (nm)” value [4]?
Answer: 110 nm

Question: And the PDI [4]?
Answer: 0.056

Question: What does the source list for `CCCCCCCCC(CCCCCCC)C(=O)OCC(COC(=O)C(CCCCCCC)CCCCCCCC)N1CCC2(CCN(CCCCO)CC2)CC1` (stereo not shown) [Example 26, 2-(9-(4-hydroxybutyl)-3,9-diazaspiro[5.5]undecan-3-yl)propane-1,3-diyl bis(2-heptyldecanoate)]?
Answer: EE % [1]: 100%; EC50 Hela (ng/well) [2]: 1.8 ng/well; EC50 Hek293F (ng/well) [3]: 1.6 ng/well; Size (nm) [4]: 96 nm; PDI [4]: 0.030
